Some test systems named below: SW-620 colon; COLO 205 colon; SNB-19 CNS; SR leukemia; EKVX NSCLC; M14 melanoma; HCC-2998 colon; CAKI-1 renal; SK-MEL-2 melanoma; NCI/ADR-RES ovarian.
Test in all cases: inhibition of tumour cell growth, NCI panel, 48 h

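Interpolation was linear, between the two tested concentrations surrounding the appropriate level; five concentrations were tested over 48 hours in 96-well plates. Here, GI50 denotes the concentration required for 50% inhibition of growth. TGI: total growth inhibition.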

Take `C#CCOCn1cnc2c(Cl)ncnc21`: the TGI in the experiment with SW-620 colon, in the experiment on COLO 205 colon, with SNB-19 CNS, in the experiment on SR leukemia, in the experiment on EKVX NSCLC and with M14 melanoma was over 100 µM each time. The TGI in the experiment on HCC-2998 colon, in the experiment on CAKI-1 renal and in the experiment with SK-MEL-2 melanoma was over 100 µM each time.

`Cc1ccc(NC(=O)C(=O)C(C#N)c2ccccc2C)cc1C` (stereo not drawn): the TGI in the experiment on SW-620 colon was over 61.3 µM; with COLO 205 colon it was over 67.3 µM; in the experiment with SNB-19 CNS it was over 100 µM; in the experiment with SR leukemia it was over 100 µM; in the experiment with EKVX NSCLC it was over 100 µM; with M14 melanoma, over 100 µM. Further, the TGI was over 82 µM in the experiment on HCC-2998 colon, over 100 µM in the experiment on CAKI-1 renal and over 100 µM in the experiment on SK-MEL-2 melanoma.

Take `C=CCC[CH2][Sn]([c]1ccccc1)([c]1ccccc1)[c]1ccccc1`: the GI50 in the experiment on SW-620 colon was 0.856 µM; in the experiment on COLO 205 colon it was 1.64 µM; with SNB-19 CNS, 1.73 µM; with SR leukemia it was 0.572 µM; in the experiment with EKVX NSCLC, 1.89 µM; with M14 melanoma it was 1.62 µM. Moreover, the GI50 in the experiment on HCC-2998 colon is 1.69 µM; in the experiment on CAKI-1 renal, 1.52 µM; in the experiment on SK-MEL-2 melanoma it was 1.76 µM. The TGI in the experiment on SW-620 colon came out at 2.12 µM; with COLO 205 colon, 3 µM; in the experiment with SNB-19 CNS, 3.31 µM; in the experiment with SR leukemia it was 5.28 µM; in the experiment with EKVX NSCLC it was 3.97 µM; in the experiment with M14 melanoma it was 3.09 µM. Besides, the results for the TGI in the experiment with HCC-2998 colon, in the experiment on CAKI-1 renal and in the experiment on SK-MEL-2 melanoma were 3.11 µM, 3.18 µM and 3.2 µM, respectively.

Regarding `CC1=C(Oc2ccccc2)C(CCC(=O)O)c2c(O)cc(Cl)c(O)c21` (stereo not drawn), the TGI in the experiment on SW-620 colon, in the experiment on COLO 205 colon, with SNB-19 CNS, in the experiment with SR leukemia, in the experiment with EKVX NSCLC and in the experiment on M14 melanoma was over 100 µM in each case. Besides, the TGI in the experiment on HCC-2998 colon, in the experiment on CAKI-1 renal and in the experiment on SK-MEL-2 melanoma was over 100 µM throughout.

Turning to `COc1ccc(-c2ccc(/C=N/n3c(COc4ccc(Cl)cc4Cl)nn(CN4CCOCC4)c3=S)o2)c([N+](=O)[O-])c1`, the GI50 was 30.8 µM in the experiment on COLO 205 colon; 28.7 µM with SNB-19 CNS; 27.7 µM in the experiment on SR leukemia; over 100 µM in the experiment with EKVX NSCLC; 26 µM with M14 melanoma; 22.7 µM with HCC-2998 colon. For the same compound, the GI50 with CAKI-1 renal was 22.7 µM; with NCI/ADR-RES ovarian it was 21.1 µM. Also, the TGI in the experiment with COLO 205 colon was over 100 µM; in the experiment on SNB-19 CNS, over 100 µM; with SR leukemia, 68.4 µM; with EKVX NSCLC, over 100 µM; with M14 melanoma, 72.6 µM; in the experiment on HCC-2998 colon, 60.2 µM. Also, the figures for the TGI in the experiment on CAKI-1 renal and in the experiment on NCI/ADR-RES ovarian were 67.4 µM and 58.7 µM, respectively.

For the compound `COc1ccc(-c2c3c(N)nc(-c4ccncc4)nc3nc3c2c(C)nn3-c2ccccc2)cc1`, the GI50 in the experiment with SW-620 colon was 4.36 µM; in the experiment with COLO 205 colon, 6.12 µM; in the experiment with SNB-19 CNS, 65.1 µM; with SR leukemia it was 1.53 µM; in the experiment on M14 melanoma, 17.5 µM; in the experiment with HCC-2998 colon, over 100 µM. For the same compound, the GI50 in the experiment on CAKI-1 renal is over 100 µM; in the experiment on NCI/ADR-RES ovarian, 19.7 µM; in the experiment on SK-MEL-2 melanoma, 31 µM. For the same compound, the TGI with SW-620 colon, in the experiment with COLO 205 colon, in the experiment on SNB-19 CNS, in the experiment with SR leukemia, in the experiment with M14 melanoma and in the experiment on HCC-2998 colon was over 100 µM each time. The TGI in the experiment with CAKI-1 renal, in the experiment with NCI/ADR-RES ovarian and with SK-MEL-2 melanoma was over 100 µM in each case.

As for `COc1ccc(OC)c(/C=C2\SC(=S)NC2=O)c1`, the GI50 with SW-620 colon is 60.2 µM; in the experiment on COLO 205 colon, 48.3 µM; with SNB-19 CNS it was 79.8 µM; in the experiment with SR leukemia, 37.6 µM; with EKVX NSCLC it was 14.2 µM; in the experiment with M14 melanoma, 30.7 µM. For the same compound, the figures for the GI50 in the experiment on CAKI-1 renal, in the experiment on NCI/ADR-RES ovarian and in the experiment with SK-MEL-2 melanoma were 21.9 µM, 25.4 µM and 80.6 µM, respectively. Besides, the TGI in the experiment on SW-620 colon was over 100 µM; in the experiment with COLO 205 colon, over 100 µM; in the experiment on SNB-19 CNS, over 100 µM; with SR leukemia it was over 100 µM; in the experiment with EKVX NSCLC, 42.1 µM; in the experiment with M14 melanoma, over 100 µM. In addition, the TGI was 61.4 µM in the experiment on CAKI-1 renal, 87.5 µM in the experiment with NCI/ADR-RES ovarian and over 100 µM in the experiment with SK-MEL-2 melanoma.

Consider `O=C(N/C(=C\c1ccc2c(c1)OCO2)c1nc2ccccc2[nH]1)c1ccccc1`, for which the TGI in the experiment on SW-620 colon was over 100 µM; in the experiment with COLO 205 colon, over 60.3 µM; in the experiment on SNB-19 CNS, over 100 µM; with SR leukemia it was 72.3 µM; in the experiment with EKVX NSCLC, over 100 µM; in the experiment on M14 melanoma it was over 90.9 µM. The results for the TGI in the experiment on HCC-2998 colon, in the experiment with CAKI-1 renal and with SK-MEL-2 melanoma were over 87.3 µM, over 100 µM and 55.9 µM, respectively.

`Cc1c(C(=O)C/C(=N\O)C(=O)Nc2cc(Cl)c(Cl)cc2Cl)[n+](=O)c2ccccc2n1[O-]`: the TGI was 9.74 µM in the experiment with SW-620 colon; 12.6 µM in the experiment with COLO 205 colon; over 100 µM with SNB-19 CNS; 84.4 µM in the experiment on SR leukemia; 43.6 µM in the experiment with EKVX NSCLC; 15.9 µM in the experiment with M14 melanoma. The TGI is 23.5 µM in the experiment on HCC-2998 colon, over 100 µM in the experiment with CAKI-1 renal and 34.8 µM in the experiment with SK-MEL-2 melanoma.

On to `NCCOCCOCCNc1nc(Cc2ccccc2)nc(NCCCN2CCCC2=O)n1`, for which the GI50 in the experiment on SW-620 colon, with COLO 205 colon, with SR leukemia, in the experiment with M14 melanoma, in the experiment on HCC-2998 colon and with CAKI-1 renal was over 100 µM throughout. The GI50 in the experiment with NCI/ADR-RES ovarian is over 100 µM. Further, the TGI in the experiment on SW-620 colon, in the experiment on COLO 205 colon, in the experiment with SR leukemia, with M14 melanoma, with HCC-2998 colon and in the experiment on CAKI-1 renal was over 100 µM in each case. For the same compound, the TGI in the experiment on NCI/ADR-RES ovarian was over 100 µM.

Turning to `COC(=O)C(=O)C1(CCC(C)=O)c2ccccc2-c2c(C)ccc(C)c21` (stereo not drawn), the TGI with SW-620 colon is over 100 µM; in the experiment on COLO 205 colon, over 100 µM; with SNB-19 CNS, over 100 µM; in the experiment with SR leukemia, 61.5 µM; in the experiment with EKVX NSCLC, over 100 µM; with M14 melanoma, over 100 µM. Further, the TGI in the experiment with HCC-2998 colon, in the experiment with CAKI-1 renal and with SK-MEL-2 melanoma was over 100 µM throughout.

For the origin of these results see PubChem BioAssay (NCI).
